The numbers were not newly measured in patent US12121566B2, “Methods for treating gout” (Horizon Therapeutics USA, Inc., priority 2019, dated 2024), which cites them from elsewhere.

For series [1] the following is noted: cited from earlier work; for detectable in urine: after 8 hours.
Series [2] relates to serum proteins. The conditions noted are these: cited from earlier work.
For series [3] the following is noted: cited from earlier work.
For series [4], the system named is patients treated with allopurinol. The following applies: cited from earlier work.

The structures appear in SMILES notation. Read-outs that look alike come from different tables or passages of the source.

Turning to `Sc1ncnc2nc[nH]c12` [mercaptopurine, 6-mercaptopurine], in series [1], the detectable in urine entry is recorded as “no azathioprine or mercaptopurine is detectable”. Moreover, the “bound to serum proteins” value in series [2] was 30%.
As to `Cn1cnc([N+](=O)[O-])c1Sc1ncnc2nc[nH]c12` [azathioprine, 6-[(1-methyl-4-nitro-1H-imidazol-5-yl)thio]-1H-purine], the stability in solution entry in series [3] (excess sodium hydroxide (0.1N), especially on warming) is reported as “hydrolysis to mercaptopurine occurs”; in series [3] (neutral or acid pH), “stable”. Besides, the solubility in water result in series [3] (may be dissolved with one molar equivalent of alkali) is “insoluble”. Besides, the detectable in urine entry in series [1] is given as “no azathioprine or mercaptopurine is detectable”. The oral absorption entry in series [1] (oral administration) is “well absorbed”. In addition, the “bound to serum proteins” value in series [2] is given as 30%.
For the molecule `Oc1ncnc2[nH]ncc12` [allopurinol], in series [4], the “patients who develop allergic reactions” value was “Approximately 2%” and the severe hypersensitivity syndrome entry is “about 0.4%”.
